Experimental data: patent US12545654B2 (STEMSYNERGY THERAPEUTICS, INC., priority 2020, dated 2026)

Tested on: N-myc protein
Assay: In-cell immunostaining assay for decrease of N-myc protein level in neuroblastoma cells
Assay type: cell-based
Settings: human neuroblastoma cell lines (Kelly, IMR32, SK-N-BE(2)); treated overnight or up to 3 days; N-myc signal normalized over total protein; read-out: Activity (EC50 for decreasing N-myc protein level)
Description: Human neuroblastoma cell lines were obtained from either Millipore Sigma, St. Louis, MO (Kelly cells) or American Type Culture Collection, Manassas, VA (IMR32 and SK-N-BE(2) cells). Cells were cultured in RPMI1640 medium (Corning, New York, NY), supplemented with 10% fetal bovine serum, 100 unit/mL penicillin and 100 μg/mL streptomycin (Corning, New York, NY) at 37 degree Celsius with 5% CO2 in air atmosphere. Cells cultured in flat clear bottom, black 96-well plates (Corning, New York, NY) were treated with different concentrations of a compound of the invention, which was dissolved in the culture media (200 μL/well), overnight or up to 3 days. Cells were fixed with 4% paraformaldehyde (in Phosphate-Buffered Saline or PBS, 100 μL/well) for 30 minutes at room temperature. Cells were briefly washed three times with PBS afterwards, and then treated with PBS containing 0.1% Triton X-100 (100 μL/well) for 30 minutes at room temperature. For […], cells were further treated with PBS containing 0.01% IRDye 700DX NHS Ester (LI-COR Biosciences, Lincoln, NE. 100 μL/well) for 30 minutes at room temperature. Cells were again washed three times with PBS, and then treated with a Tris-buffered saline solution with 0.1% Tween 20 (TBST) and 5% non-fat milk (50 μL/well) for 1 hour at room temperature. Cells were then treated with TBST with 5% non-fat milk (50 μL/well) containing a mouse anti N-Myc antibody (Clone B8.4.B, 1:500 dilution, Santa Cruz Biotechnology, Santa Cruz, CA), or a combination of a rabbit anti-Histone H3 (phospho S10) antibody (Clone EPR17246, 1:10000 dilution, abcam, Cambridge, MA) and a mouse anti-Histone H3 antibody (Clone 1G1, 1:250 dilution, Santa Cruz Biotechnology, Santa Cruz, CA) overnight at 4 degree Celsius in the dark. Cells were washed three times with TBST, and then treated with TBST with 5% non-fat milk (50 μL/well) containing an IRDye 800CW donkey anti-mouse IgG antibody (1:1000 dilution, LI-COR Biosciences, Lincoln, NE) for N-myc staining, or IRDye® 800CW donkey anti-rabbit IgG and IRDye 680RD donkey anti-mouse IgG antibodies (1:1000 dilution, LI-COR Biosciences, Lincoln, NE) for Histone H3 (phospho S10) and Histone H3 staining, incubated for 1 hour at room temperature in the dark. Cells were then washed four times with TBST and the plate was scanned using an Odyssey 9120 Imaging System (LI-COR Biosciences, Lincoln, NE). Signals for N-myc, total protein, Histone H3 (phospho S10), and Histone H3 were obtained from the images using the ImageStudio software (Version 4.0.21, LI-COR Biosciences, Lincoln, NE). Normalized signals for N-myc (over total protein), and Histone H3 (phospho S10) (over Histone H3) were plotted in Prism 7 software (GraphPad Software, San Diego, CA). A four-parameter dose-response curve was fitted using a variable slope model and the EC50 was calculated in Prism 7 software (GraphPad Software, San Diego, CA).

SMILES | EC50
O=C(Nc1cccc(C(F)(F)F)c1)c1sc(NC(=O)C2(C(=O)Nc3ccc(F)cc3)CC2)nc1-c1ccccc1 | > 1 µM
O=C(Nc1ccc(Cl)c(Cl)c1)c1sc(NC(=O)C2(C(=O)Nc3ccc(F)cc3)CC2)nc1-c1ccccc1 | > 1 µM
O=C(Nc1ccc(Cl)c(Cl)c1)c1sc(NC(=O)C2(C(=O)Nc3ccc(F)cc3)CC2)nc1C1CC1 | > 1 µM
Cc1nc(NC(=O)C2(C(=O)Nc3ccc(F)cc3)CC2)sc1C(=O)Nc1cc(C(F)(F)F)ccc1Cl [SSTA-0152, N-(5-((2-chloro-5-(trifluoromethyl)phenyl)carbamoyl)-4-methylthiazol-2-yl)-N-(4-fluorophenyl)cyclopropane-1,1-dicarboxamide] | 0.25 to 1 µM
Cc1nc(NC(=O)C2(C(=O)Nc3cccc(C(F)(F)F)c3)CC2)sc1C(=O)Nc1cc(C(F)(F)F)ccc1Cl [SSTA-0168, N-(5-((2-chloro-5-(trifluoromethyl)phenyl)carbamoyl)-4-methylthiazol-2-yl)-N-(3-(trifluoromethyl)phenyl)cyclopropane-1,1-dicarboxamide] | > 1 µM
Cc1nc(NC(=O)C2(C(=O)Nc3ccc(Cl)cc3)CC2)sc1C(=O)Nc1cc(C(F)(F)F)ccc1Cl [SSTA-0169, N-(5-((2-chloro-5-(trifluoromethyl)phenyl)carbamoyl)-4-methylthiazol-2-yl)-N-(4-chlorophenyl)cyclopropane-1,1-dicarboxamide] | > 1 µM
Cc1nc(NC(=O)C2(C(=O)Nc3ccccc3Cl)CC2)sc1C(=O)Nc1cc(C(F)(F)F)ccc1Cl [SSTA-0170, N-(5-((2-chloro-5-(trifluoromethyl)phenyl)carbamoyl)-4-methylthiazol-2-yl)-N-(2-chlorophenyl)cyclopropane-1,1-dicarboxamide] | > 1 µM
Cc1nc(NC(=O)C2(C(=O)Nc3cccc(F)c3)CC2)sc1C(=O)Nc1cc(C(F)(F)F)ccc1Cl [SSTA-0171, N-(5-((2-chloro-5-(trifluoromethyl)phenyl)carbamoyl)-4-methylthiazol-2-yl)-N-(3-fluorophenyl)cyclopropane-1,1-dicarboxamide] | > 1 µM
Cc1nc(NC(=O)C2(C(=O)Nc3ccc(F)cc3)CC2)oc1C(=O)Nc1cccc(C(F)(F)F)c1 [SSTA-0190, N-(4-fluorophenyl)-N-(4-methyl-5-((3-(trifluoromethyl)phenyl)carbamoyl)oxazol-2-yl)cyclopropane-1,1-dicarboxamide] | > 1 µM
Cc1nc(NC(=O)C2(C(=O)Nc3ccc(F)cc3)CC2)oc1C(=O)Nc1ccc(Cl)c(Cl)c1 [SSTA-0191, N-(5-((3,4-dichlorophenyl)carbamoyl)-4-methyloxazol-2-yl)-N-(4-fluorophenyl)cyclopropane-1,1-dicarboxamide] | > 1 µM
O=C(Nc1ccc(Cl)c(Cl)c1)c1sc(NC(=O)C2(C(=O)Nc3ccc(F)cc3)CC2)nc1C(F)(F)F [SSTA-0194, N-(5-((3,4-dichlorophenyl)carbamoyl)-4-(trifluoromethyl)thiazol-2-yl)-N-(4-fluorophenyl)cyclopropane-1,1-dicarboxamide] | > 1 µM
O=C(Nc1cc(C(F)(F)F)ccc1Cl)c1sc(NC(=O)C2(C(=O)Nc3ccc(F)cc3)CC2)nc1C(F)(F)F [SSTA-0217, N-(5-((2-chloro-5-(trifluoromethyl)phenyl)carbamoyl)-4-(trifluoromethyl)thiazol-2-yl)-N-(4-fluorophenyl)cyclopropane-1,1-dicarboxamide] | 0.25 to 1 µM
O=C(Nc1cc(C(F)(F)F)ccc1Cl)c1sc(NC(=O)C2(C(=O)Nc3ccc(F)cc3)CC2)nc1C1CC1 [SSTA-0218, N-(5-((2-chloro-5-(trifluoromethyl)phenyl)carbamoyl)-4-cyclopropylthiazol-2-yl)-N-(4-fluorophenyl)cyclopropane-1,1-dicarboxamide] | 0.25 to 1 µM
Cc1nc(-c2ccc(NC(=O)C3(C(=O)Nc4nc(C)c(C(=O)Nc5cc(C(F)(F)F)ccc5Cl)s4)CC3)cc2)no1 [SSTA-0229, N-(5-((2-chloro-5-(trifluoromethyl)phenyl)carbamoyl)-4-methylthiazol-2-yl)-N-(4-(5-methyl-1,2,4-oxadiazol-3-yl)phenyl)cyclopropane-1,1-dicarboxamide] | > 1 µM
COc1cc(NC(=O)C2(C(=O)Nc3nc(C)c(C(=O)Nc4cc(C(F)(F)F)ccc4Cl)s3)CC2)cc(C(F)(F)F)c1 [SSTA-0234, N-(5-((2-chloro-5-(trifluoromethyl)phenyl)carbamoyl)-4-methylthiazol-2-yl)-N-(3-methoxy-5-(trifluoromethyl)phenyl)cyclopropane-1,1-dicarboxamide] | 0.25 to 1 µM
Cc1nc(NC(=O)C2(C(=O)Nc3ccc(Cl)c(F)c3)CC2)sc1C(=O)Nc1cc(C(F)(F)F)ccc1Cl [SSTA-0236, N-(4-chloro-3-fluorophenyl)-N-(5-((2-chloro-5-(trifluoromethyl)phenyl)carbamoyl)-4-methylthiazol-2-yl)cyclopropane-1,1-dicarboxamide] | 0.25 to 1 µM
Cc1nc(NC(=O)C2(C(=O)Nc3cc(F)cc(Cl)c3)CC2)sc1C(=O)Nc1cc(C(F)(F)F)ccc1Cl [SSTA-0237, N-(5-((2-chloro-5-(trifluoromethyl)phenyl)carbamoyl)-4-methylthiazol-2-yl)-N-(3-chloro-5-fluorophenyl)cyclopropane-1,1-dicarboxamide] | 0.25 to 1 µM
Cc1nc(NC(=O)C2(C(=O)Nc3ccc(F)c(F)c3)CC2)sc1C(=O)Nc1cc(C(F)(F)F)ccc1Cl [SSTA-0238, N-(5-((2-chloro-5-(trifluoromethyl)phenyl)carbamoyl)-4-methylthiazol-2-yl)-N-(3,4-difluorophenyl)cyclopropane-1,1-dicarboxamide] | 0.25 to 1 µM
Cc1nc(NC(=O)C2(C(=O)Nc3cc(F)ccc3F)CC2)sc1C(=O)Nc1cc(C(F)(F)F)ccc1Cl [SSTA-0239, N-(5-((2-chloro-5-(trifluoromethyl)phenyl)carbamoyl)-4-methylthiazol-2-yl)-N-(2,5-difluorophenyl)cyclopropane-1,1-dicarboxamide] | > 1 µM
COc1c(F)cccc1NC(=O)C1(C(=O)Nc2nc(C)c(C(=O)Nc3cc(C(F)(F)F)ccc3Cl)s2)CC1 [SSTA-0240, N-(5-((2-chloro-5-(trifluoromethyl)phenyl)carbamoyl)-4-methylthiazol-2-yl)-N-(3-fluoro-2-methoxyphenyl)cyclopropane-1,1-dicarboxamide] | > 1 µM
COc1cc(F)cc(NC(=O)C2(C(=O)Nc3nc(C)c(C(=O)Nc4cc(C(F)(F)F)ccc4Cl)s3)CC2)c1 [SSTA-0241, N-(5-((2-chloro-5-(trifluoromethyl)phenyl)carbamoyl)-4-methylthiazol-2-yl)-N-(3-fluoro-5-methoxyphenyl)cyclopropane-1,1-dicarboxamide] | 0.25 to 1 µM
Cc1nc(NC(=O)C2(C(=O)Nc3ccc(F)cc3OC(C)C)CC2)sc1C(=O)Nc1cc(C(F)(F)F)ccc1Cl [SSTA-0242, N-(5-((2-chloro-5-(trifluoromethyl)phenyl)carbamoyl)-4-methylthiazol-2-yl)-N-(4-fluoro-2-isopropoxyphenyl)cyclopropane-1,1-dicarboxamide] | > 1 µM
Cc1nc(NC(=O)C2(C(=O)Nc3ccc(F)cc3Cl)CC2)sc1C(=O)Nc1cc(C(F)(F)F)ccc1Cl [SSTA-0247, N-(2-chloro-4-fluorophenyl)-N-(5-((2-chloro-5-(trifluoromethyl)phenyl)carbamoyl)-4-methylthiazol-2-yl)cyclopropane-1,1-dicarboxamide] | > 1 µM
Cc1nc(NC(=O)C2(C(=O)Nc3ccc(F)cc3F)CC2)sc1C(=O)Nc1cc(C(F)(F)F)ccc1Cl [SSTA-0248, N-(5-((2-chloro-5-(trifluoromethyl)phenyl)carbamoyl)-4-methylthiazol-2-yl)-N-(2,4-difluorophenyl)cyclopropane-1,1-dicarboxamide] | > 1 µM
Cc1nc(NC(=O)C2(C(=O)Nc3cc(C(F)(F)F)ccc3Cl)CC2)sc1C(=O)Nc1cc(C(F)(F)F)ccc1Cl [SSTA-0250, N-(2-chloro-5-(trifluoromethyl)phenyl)-N-(5-((2-chloro-5-(trifluoromethyl)phenyl)carbamoyl)-4-methylthiazol-2-yl)cyclopropane-1,1-dicarboxamide] | 0.25 to 1 µM
